Converted amounts (≈) assume the structure as drawn.
Assays:
S. aureus ATCC 25923 = assay: MIC, agar incorporation method; type: cell-based, Staphylococcus aureus; details: S. No. 1, organism cell empty
S. aureus ATCC29213 = assay: MIC, agar incorporation method; type: cell-based, Staphylococcus aureus; details: S. No. 2, S. aureus ATCC29213
S. aureus (MRSA) ST450 = assay: MIC, agar incorporation method; type: cell-based, Staphylococcus aureus; details: S. No. 6, S. aureus (MRSA) ST450
(MRSA) 562 = assay: MIC, agar incorporation method; type: cell-based, Staphylococcus aureus; details: S. No. 8, (MRSA) 562
S. aureus (Smith 49951) = assay: MIC, agar incorporation method; type: cell-based, Staphylococcus aureus; details: S. No. 9, S. aureus (Smith 49951)
[1] = tested on: S. epidermidis ATCC 12228; assay: MIC, agar incorporation method; type: cell-based, Staphylococcus epidermidis; details: S. No. 10, S. epidermidis ATCC 12228
S. epidermidis 823 = assay: MIC, agar incorporation method; type: cell-based, Staphylococcus epidermidis; details: S. No. 12, S. epidermidis 823
[2] = tested on: S. epidermidis (MRSE)32965; assay: MIC, agar incorporation method; type: cell-based, Staphylococcus epidermidis; details: S. No. 13, S. epidermidis (MRSE)32965
S. epidermidis 358 = assay: MIC, agar incorporation method; type: cell-based, Staphylococcus epidermidis; details: S. No. 14, S. epidermidis 358
S. haemo ATCC 29970 = assay: MIC, agar incorporation method; type: cell-based; details: S. No. 15, S. haemo ATCC 29970
S. warnerii ST360 = assay: MIC, agar incorporation method; type: cell-based; details: S. No. 16, S. warnerii ST360
E. faecalis 29212 = assay: MIC, agar incorporation method; type: cell-based; details: S. No. 17, E. faecalis 29212
E. faecium 6A (VRE) = assay: MIC, agar incorporation method; type: cell-based, Enterococcus faecium; details: S. No. 21, E. faecium 6A (VRE)
E. coli 25922 = assay: MIC, agar incorporation method; type: cell-based; details: S. No. 25, E. coli 25922
Acinetobacter 9956 = assay: MIC, agar incorporation method; type: cell-based; details: S. No. 30, Acinetobacter 9956
S. pneumoniae AB-3 = assay: MIC, agar incorporation method; type: cell-based, Streptococcus pneumoniae; details: S. No. 32, S. pneumoniae AB-3
S. pneumoniae CS1221 = assay: MIC, agar incorporation method; type: cell-based, Streptococcus pneumoniae; details: S. No. 34, S. pneumoniae CS1221
S. pneumoniae AB 31 = assay: MIC, agar incorporation method; type: cell-based, Streptococcus pneumoniae; details: S. No. 36, S. pneumoniae AB 31
S. pneumoniae AB 14 = assay: MIC, agar incorporation method; type: cell-based, Streptococcus pneumoniae; details: S. No. 37, S. pneumoniae AB 14
S. pneumoniae AB 17 = assay: MIC, agar incorporation method; type: cell-based, Streptococcus pneumoniae; details: S. No. 40, S. pneumoniae AB 17
S. pneumoniae AB 22 = assay: MIC, agar incorporation method; type: cell-based, Streptococcus pneumoniae; details: S. No. 42, S. pneumoniae AB 22
S. pneumoniae CS 1687 = assay: MIC, agar incorporation method; type: cell-based, Streptococcus pneumoniae; details: S. No. 44, S. pneumoniae CS 1687
S. pneumoniae ATCC 6303 = assay: MIC, agar incorporation method; type: cell-based, Streptococcus pneumoniae; details: S. No. 50, S. pneumoniae ATCC 6303
S. pyogenes 25147 = assay: MIC, agar incorporation method; type: cell-based, Streptococcus pyogenes; details: S. No. 52, S. pyogenes 25147
Moraxella M1 = assay: MIC, agar incorporation method; type: cell-based; details: S. No. 58, Moraxella M1
H. influenzae ATCC 49247 = assay: MIC against Haemophilus strains; type: cell-based; details: s. No. 2, H. influenzae ATCC 49247
H. influenzae R = assay: MIC against Haemophilus strains; type: cell-based; details: s. No. 4, H. influenzae R
H. influenzae 474 = assay: MIC against Haemophilus strains; type: cell-based; details: s. No. 11, H. influenzae 474

Compound | MIC (S. aureus ATCC 25923) [µg/mL] | MIC (S. aureus ATCC29213) [µg/mL] | MIC (S. aureus (MRSA) ST450) [µg/mL] | MIC ((MRSA) 562) [µg/mL] | MIC (S. aureus (Smith 49951)) [µg/mL] | MIC [1] [µg/mL] | MIC (S. epidermidis 823) [µg/mL] | MIC [2] [µg/mL] | MIC (S. epidermidis 358) [µg/mL] | MIC (S. haemo ATCC 29970) [µg/mL] | MIC (S. warnerii ST360) [µg/mL] | MIC (E. faecalis 29212) [µg/mL] | MIC (E. faecium 6A (VRE)) [µg/mL] | MIC (E. coli 25922) [µg/mL] | MIC (Acinetobacter 9956) [µg/mL] | MIC (S. pneumoniae AB-3) [µg/mL] | MIC (S. pneumoniae CS1221) [µg/mL] | MIC (S. pneumoniae AB 31) [µg/mL] | MIC (S. pneumoniae AB 14) [µg/mL] | MIC (S. pneumoniae AB 17) [µg/mL] | further results
(S)—N-[[3-[-3-Fluoro-4-[(5-nitro-2-thienyl)-3-methyl-1-piperazinyl]phenyl]-2-oxo-5-oxazolidinyl]methyl]acetamide [Compound No. 10] | 1 | 1 | 1 | 1 | 1 | 0.25 | 0.5 | 0.5 | 0.5 | 0.25 | 0.5 | 1 | 1 | >8 | >8 | 0.5 | 0.5 | 0.5 | 0.5 | 0.5 | MIC (S. pneumoniae AB 22): 0.5 µg/mL; MIC (S. pneumoniae CS 1687): 0.5 µg/mL; MIC (S. pneumoniae ATCC 6303): 0.5 µg/mL; MIC (S. pyogenes 25147): 0.5 µg/mL; MIC (Moraxella M1): 2 µg/mL; MIC (H. influenzae ATCC 49247): >16 µg/mL; MIC (H. influenzae R): >16 µg/mL; MIC (H. influenzae 474): >16 µg/mL
O=C(NC[C@H]1CN(c2ccc(N3CCN(c4ccc([N+](=O)[O-])s4)CC3)c(F)c2)C(=O)O1)C(Cl)Cl [compound 9, (S)—N-[[3-[-3-Fluoro-4-[N-1-(5-nitro-2-thienyl)-piperazinyl]phenyl] -2-oxo-5-oxazolidinyl]methyl]dichloroacetamide] | 2 (≈ 3.76 µM) | 2 (≈ 3.76 µM) | 1 (≈ 1.88 µM) | 1 (≈ 1.88 µM) | 0.5 (≈ 0.939 µM) | 0.25 (≈ 0.47 µM) | 0.5 (≈ 0.939 µM) | 0.5 (≈ 0.939 µM) | 0.5 (≈ 0.939 µM) | 0.5 (≈ 0.939 µM) | 0.5 (≈ 0.939 µM) | 1 (≈ 1.88 µM) | 0.5 (≈ 0.939 µM) | >8 | >8 | 0.25 (≈ 0.47 µM) | 0.25 (≈ 0.47 µM) | 0.25 (≈ 0.47 µM) | 0.25 (≈ 0.47 µM) | 0.25 (≈ 0.47 µM) | MIC (S. pneumoniae AB 22): 0.25 µg/mL (≈ 0.47 µM); MIC (S. pneumoniae CS 1687): 0.5 µg/mL (≈ 0.939 µM); MIC (S. pneumoniae ATCC 6303): 0.25 µg/mL (≈ 0.47 µM); MIC (S. pyogenes 25147): 0.5 µg/mL (≈ 0.939 µM); MIC (Moraxella M1): 1 µg/mL (≈ 1.88 µM); MIC (H. influenzae ATCC 49247): >16 µg/mL; MIC (H. influenzae R): >16 µg/mL; MIC (H. influenzae 474): >16 µg/mL
C[C@H](Cl)C(=O)NCC1CN(c2ccc(N3CCN(c4ccc([N+](=O)[O-])s4)CC3)c(F)c2)C(=O)O1 (stereo partly drawn) [Compound No. 7, (S)—N-[[3-[3-Fluoro-4-[N-1-{4-(5-nitro-2-thienyl)piperazinyl}]-phenyl]-2-oxo-5-oxazolidinyl]-methyl]-2-chloro-propionamide] | >8 | >8 | >8 | >8 | >8 | 1 (≈ 1.95 µM) | 2 (≈ 3.91 µM) | 2 (≈ 3.91 µM) | 2 (≈ 3.91 µM) | 2 (≈ 3.91 µM) | 4 (≈ 7.81 µM) | >8 | >8 | >8 | >8 | 0.5 (≈ 0.977 µM) | 0.5 (≈ 0.977 µM) | 1 (≈ 1.95 µM) | 1 (≈ 1.95 µM) | 1 (≈ 1.95 µM) | MIC (S. pneumoniae AB 22): 1 µg/mL (≈ 1.95 µM); MIC (S. pneumoniae CS 1687): 2 µg/mL (≈ 3.91 µM); MIC (S. pneumoniae ATCC 6303): 0.5 µg/mL (≈ 0.977 µM); MIC (S. pyogenes 25147): 2 µg/mL (≈ 3.91 µM); MIC (Moraxella M1): >8 µg/mL; MIC (H. influenzae ATCC 49247): >16 µg/mL; MIC (H. influenzae R): >16 µg/mL; MIC (H. influenzae 474): >16 µg/mL

— patent US20060293307A1, “Oxazolidinone derivatives as antimicrobials” (priority 2002, published 2006)
